Data published in ChEMBL document CHEMBL6134931, “Lysine-Targeted Covalent Strategy Leading to the Discovery of Novel Potent PROTAC-Based PI3Kδ Degraders” (J Med Chem, 2025).
The source made the active and inactive calls. The calls are words filed in the database; no cut-off is given here.

What was measured:
[1] = tested on: SU-DHL-6; assay: Induction of apoptosis in human SU-DHL-6 cells assessed as viable cells at 1 uM incubated for 24 hrs by Annexin V-FITC/PI staining based flow cytometric analysis (reference value: 92.54 %); type: functional; conditions: read-out: Activity
[2] = tested on: SU-DHL-6; assay: Antiproliferative activity against human SU-DHL-6 cells assessed as cell growth inhibition incubated for 72 hrs by MTT assay; type: functional
[3] = tested on: SU-DHL-6; assay: Antitumor activity against human SU-DHL-6 cells xenografted in male nude mouse model assessed as reduction in Ki67 expression in tumor at 2 to 10 mg/kg, ip administered for 21 days by immunohistochemical analysis; type: functional, organism-based; conditions: dose 2-10 mg/kg, time 21.0 day
[4] = tested on: SU-DHL-6; assay: Inhibition of AKT phosphorylation in human SU-DHL-6 cells at 1 to 10000 nM incubated for 24 hrs by Western blot analysis; type: cell-based; conditions: dose 1-10000 nM
[5] = tested on: SU-DHL-6; assay: Cell cycle arrest in human SU-DHL-6 cells assessed as increase in G1 phase cells incubated for 24 hrs by PI staining based flow cytometric analysis; type: functional; conditions: dose 0.01-1 µM
[6] = target: Phosphatidylinositol 4,5-bisphosphate 3-kinase catalytic subunit alpha isoform (Homo sapiens, UniProt P42336); assay: Inhibition of PI3Kalpha (unknown origin) preincubated for 30 mins followed by ATP addition and measured after 1 hrs by ADP-Glo reagent based analysis
[7] = Toxicity in male nude mouse xenografted with human SU-DHL-6 cells assessed as effect on liver morphology at 2 to 10 mg/kg, ip administered for 21 days by H and E staining based analysis; type: organism-based; conditions: in vivo, 504 h, dose 2-10 mg/kg, time 21 day
[8] = target: Phosphatidylinositol 4,5-bisphosphate 3-kinase catalytic subunit beta isoform (Homo sapiens, UniProt P42338); assay: Inhibition of PI3Kbeta (unknown origin) preincubated for 30 mins followed by ATP addition and measured after 1 hrs by ADP-Glo reagent based analysis
[9] = Toxicity in male nude mouse xenografted with human SU-DHL-6 cells assessed as effect on heart morphology at 2 to 10 mg/kg, ip administered for 21 days by H and E staining based analysis; type: organism-based; conditions: in vivo, 504 h, dose 2-10 mg/kg, time 21 day
[10] = tested on: SU-DHL-6; assay: Induction of apoptosis in human SU-DHL-6 cells assessed as necrotic cells at 1 uM incubated for 24 hrs by Annexin V-FITC/PI staining based flow cytometric analysis (reference value: 0.39 %); type: functional
[11] = tested on: SU-DHL-6; assay: Induction of apoptosis in human SU-DHL-6 cells assessed as late apoptotic cells at 1 uM incubated for 24 hrs by Annexin V-FITC/PI staining based flow cytometric analysis (reference value: 4.75 %); type: functional
[12] = tested on: SU-DHL-6; assay: Cell cycle arrest in human SU-DHL-6 cells assessed as increase in G1 phase cells at 0.1 uM incubated for 24 hrs by PI staining based flow cytometric analysis; type: functional
[13] = tested on: Mus musculus; assay: In vivo inhibition of AKT phosphorylation in male nude mouse xenografted with human SU-DHL-6 cells assessed as reduction in p-AKT expression level in tumor administered intraperitoneally for 21 days by Western blot analysis; type: functional, organism-based; conditions: dose 2-10 mg/kg, route ip, time 21.0 day
[14] = Toxicity in male nude mouse xenografted with human SU-DHL-6 cells assessed as effect on body weight at 2 to 10 mg/kg, ip administered for 21 days; type: organism-based; conditions: in vivo, 504 h, dose 2-10 mg/kg, time 21 day
[15] = tested on: SU-DHL-6; assay: Induction of apoptosis in human SU-DHL-6 cells assessed as early apoptotic cells at 0.1 uM incubated for 24 hrs by Annexin V-FITC/PI staining based flow cytometric analysis (reference value: 2.32 %); type: functional
[16] = target: von Hippel-Lindau disease tumor suppressor/Phosphatidylinositol 4,5-bisphosphate 3-kinase catalytic subunit beta isoform (Homo sapiens, UniProt P42338+P40337); assay: PROTAC activity at VHL/p110beta in human SU-DHL-6 cells assessed as induction of p110beta degradation incubated for 24 hrs by Western blot analysis; type: cell-based
[17] = tested on: SU-DHL-6; assay: Induction of apoptosis in human SU-DHL-6 cells assessed as viable cells at 0.1 uM incubated for 24 hrs by Annexin V-FITC/PI staining based flow cytometric analysis (reference value: 92.54 %); type: functional; conditions: read-out: Activity
[18] = Toxicity in male nude mouse xenografted with human SU-DHL-6 cells assessed as animal death at 2 to 10 mg/kg, ip administered for 21 days; type: organism-based; conditions: in vivo, 504 h, dose 2-10 mg/kg, time 21 day
[19] = Toxicity in male nude mouse xenografted with human SU-DHL-6 cells assessed as effect on kidney morphology at 2 to 10 mg/kg, ip administered for 21 days by H and E staining based analysis; type: organism-based; conditions: in vivo, 504 h, dose 2-10 mg/kg, time 21 day
[20] = tested on: SU-DHL-6; assay: Induction of apoptosis in human SU-DHL-6 cells assessed as late apoptotic cells at 0.1 uM incubated for 24 hrs by Annexin V-FITC/PI staining based flow cytometric analysis (reference value: 4.75 %); type: functional
[21] = tested on: SU-DHL-6; assay: Inhibition of AKT phosphorylation in human SU-DHL-6 cells at 0.1 to 1 uM incubated for 24 hrs by Western blot analysis; type: cell-based; conditions: dose 0.1-1 µM
[22] = tested on: SU-DHL-6; assay: Induction of apoptosis in human SU-DHL-6 cells assessed as necrotic cells at 0.1 uM incubated for 24 hrs by Annexin V-FITC/PI staining based flow cytometric analysis (reference value: 0.39 %); type: functional
[23] = tested on: SU-DHL-6; assay: Induction of apoptosis in human SU-DHL-6 cells assessed as necrotic cells at 0.01 uM incubated for 24 hrs by Annexin V-FITC/PI staining based flow cytometric analysis (reference value: 0.39 %); type: functional
[24] = tested on: SU-DHL-6; assay: Induction of apoptosis in human SU-DHL-6 cells assessed as early apoptotic cells at 1 uM incubated for 24 hrs by Annexin V-FITC/PI staining based flow cytometric analysis (reference value: 2.32 %); type: functional
[25] = tested on: SU-DHL-6; assay: Antitumor activity against human SU-DHL-6 cells xenografted in male nude mouse model assessed as tumor growth inhibition at 10 mg/kg, ip administered for 21 days relative to control; type: functional; conditions: SU-DHL-6, 504 h, time 21 day, read-out: TGI
[26] = tested on: SU-DHL-6; assay: Induction of autophagy in human SU-DHL-6 cells assessed as increase in LC3-II to LC3-I ratio at 1 to 100 nM incubated for 24 hrs by Western blot analysis; type: functional, cell-based; conditions: dose 1-100 nM
[27] = Toxicity in male nude mouse xenografted with human SU-DHL-6 cells assessed as effect on spleen morphology at 2 to 10 mg/kg, ip administered for 21 days by H and E staining based analysis; type: organism-based; conditions: in vivo, 504 h, dose 2-10 mg/kg, time 21 day
[28] = tested on: Pfeiffer; assay: Antiproliferative activity against human Pfeiffer cells assessed as cell growth inhibition incubated for 72 hrs by MTT assay; type: functional
[29] = tested on: SU-DHL-6; assay: Induction of apoptosis in human SU-DHL-6 cells assessed as early apoptotic cells at 0.01 uM incubated for 24 hrs by Annexin V-FITC/PI staining based flow cytometric analysis (reference value: 2.32 %); type: functional
[30] = tested on: SU-DHL-6; assay: Induction of apoptosis in human SU-DHL-6 cells assessed as late apoptotic cells at 0.01 uM incubated for 24 hrs by Annexin V-FITC/PI staining based flow cytometric analysis (reference value: 4.75 %); type: functional
[31] = tested on: SU-DHL-6; assay: Induction of apoptosis in human SU-DHL-6 cells assessed as viable cells at 0.01 uM incubated for 24 hrs by Annexin V-FITC/PI staining based flow cytometric analysis (reference value: 92.54 %); type: functional; conditions: read-out: Activity
[32] = tested on: SU-DHL-6; assay: Antitumor activity against human SU-DHL-6 cells xenografted in male nude mouse model assessed as tumor growth inhibition at 2 mg/kg, ip administered for 21 days relative to control; type: functional; conditions: SU-DHL-6, 504 h, time 21 day, read-out: TGI
[33] = target: von Hippel-Lindau disease tumor suppressor/Phosphatidylinositol 4,5-bisphosphate 3-kinase catalytic subunit alpha isoform (Homo sapiens, UniProt P42336+P40337); assay: PROTAC activity at VHL/p110alpha in human SU-DHL-6 cells assessed as induction of p110alpha degradation incubated for 24 hrs by Western blot analysis; type: cell-based
[34] = Stability of compound in PBS at pH 7.4 assessed as parent compound remaining measured after 48 hrs by HPLC analysis; type: physicochemical; conditions: read-out: Stability

Chain of Phosphatidylinositol 4,5-bisphosphate 3-kinase catalytic subunit beta isoform (P42338 whole entry, canonical isoform): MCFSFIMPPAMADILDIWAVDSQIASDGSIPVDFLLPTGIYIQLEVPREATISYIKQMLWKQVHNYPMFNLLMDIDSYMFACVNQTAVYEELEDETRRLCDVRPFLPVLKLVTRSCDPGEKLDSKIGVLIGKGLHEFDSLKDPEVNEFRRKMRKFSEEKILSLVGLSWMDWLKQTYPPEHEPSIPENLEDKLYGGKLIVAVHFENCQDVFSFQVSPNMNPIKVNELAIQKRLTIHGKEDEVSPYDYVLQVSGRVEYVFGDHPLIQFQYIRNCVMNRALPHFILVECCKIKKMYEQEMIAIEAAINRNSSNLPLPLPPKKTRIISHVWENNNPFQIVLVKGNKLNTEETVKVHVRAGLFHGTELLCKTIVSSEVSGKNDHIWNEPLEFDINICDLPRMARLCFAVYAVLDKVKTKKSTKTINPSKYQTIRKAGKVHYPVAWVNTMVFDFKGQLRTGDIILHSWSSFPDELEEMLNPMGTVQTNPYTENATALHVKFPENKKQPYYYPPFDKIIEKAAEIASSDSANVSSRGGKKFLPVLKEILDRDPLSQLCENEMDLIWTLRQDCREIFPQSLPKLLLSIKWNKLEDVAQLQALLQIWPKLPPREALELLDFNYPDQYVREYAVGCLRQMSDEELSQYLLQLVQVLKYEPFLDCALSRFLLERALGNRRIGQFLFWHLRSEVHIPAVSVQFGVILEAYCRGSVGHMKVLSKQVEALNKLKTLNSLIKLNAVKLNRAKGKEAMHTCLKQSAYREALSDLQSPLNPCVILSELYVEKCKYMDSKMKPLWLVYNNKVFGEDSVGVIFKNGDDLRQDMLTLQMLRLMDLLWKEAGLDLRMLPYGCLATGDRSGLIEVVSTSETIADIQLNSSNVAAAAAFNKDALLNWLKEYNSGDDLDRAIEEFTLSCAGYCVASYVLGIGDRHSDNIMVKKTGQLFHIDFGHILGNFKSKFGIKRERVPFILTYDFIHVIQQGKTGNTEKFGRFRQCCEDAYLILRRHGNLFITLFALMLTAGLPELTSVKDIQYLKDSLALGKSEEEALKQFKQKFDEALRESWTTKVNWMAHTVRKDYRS
Chain of von Hippel-Lindau disease tumor suppressor/Phosphatidylinositol 4,5-bisphosphate 3-kinase catalytic subunit beta isoform (P42338 whole entry, canonical isoform): as above
Chain of von Hippel-Lindau disease tumor suppressor/Phosphatidylinositol 4,5-bisphosphate 3-kinase catalytic subunit beta isoform (P40337 whole entry, canonical isoform): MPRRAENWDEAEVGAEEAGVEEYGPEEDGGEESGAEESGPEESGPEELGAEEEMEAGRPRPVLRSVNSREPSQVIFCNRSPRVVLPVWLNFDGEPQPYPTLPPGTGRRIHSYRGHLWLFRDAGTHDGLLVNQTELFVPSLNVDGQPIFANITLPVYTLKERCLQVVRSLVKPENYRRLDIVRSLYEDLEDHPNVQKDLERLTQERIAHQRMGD
Chain of Phosphatidylinositol 4,5-bisphosphate 3-kinase catalytic subunit alpha isoform (P42336 whole entry, canonical isoform): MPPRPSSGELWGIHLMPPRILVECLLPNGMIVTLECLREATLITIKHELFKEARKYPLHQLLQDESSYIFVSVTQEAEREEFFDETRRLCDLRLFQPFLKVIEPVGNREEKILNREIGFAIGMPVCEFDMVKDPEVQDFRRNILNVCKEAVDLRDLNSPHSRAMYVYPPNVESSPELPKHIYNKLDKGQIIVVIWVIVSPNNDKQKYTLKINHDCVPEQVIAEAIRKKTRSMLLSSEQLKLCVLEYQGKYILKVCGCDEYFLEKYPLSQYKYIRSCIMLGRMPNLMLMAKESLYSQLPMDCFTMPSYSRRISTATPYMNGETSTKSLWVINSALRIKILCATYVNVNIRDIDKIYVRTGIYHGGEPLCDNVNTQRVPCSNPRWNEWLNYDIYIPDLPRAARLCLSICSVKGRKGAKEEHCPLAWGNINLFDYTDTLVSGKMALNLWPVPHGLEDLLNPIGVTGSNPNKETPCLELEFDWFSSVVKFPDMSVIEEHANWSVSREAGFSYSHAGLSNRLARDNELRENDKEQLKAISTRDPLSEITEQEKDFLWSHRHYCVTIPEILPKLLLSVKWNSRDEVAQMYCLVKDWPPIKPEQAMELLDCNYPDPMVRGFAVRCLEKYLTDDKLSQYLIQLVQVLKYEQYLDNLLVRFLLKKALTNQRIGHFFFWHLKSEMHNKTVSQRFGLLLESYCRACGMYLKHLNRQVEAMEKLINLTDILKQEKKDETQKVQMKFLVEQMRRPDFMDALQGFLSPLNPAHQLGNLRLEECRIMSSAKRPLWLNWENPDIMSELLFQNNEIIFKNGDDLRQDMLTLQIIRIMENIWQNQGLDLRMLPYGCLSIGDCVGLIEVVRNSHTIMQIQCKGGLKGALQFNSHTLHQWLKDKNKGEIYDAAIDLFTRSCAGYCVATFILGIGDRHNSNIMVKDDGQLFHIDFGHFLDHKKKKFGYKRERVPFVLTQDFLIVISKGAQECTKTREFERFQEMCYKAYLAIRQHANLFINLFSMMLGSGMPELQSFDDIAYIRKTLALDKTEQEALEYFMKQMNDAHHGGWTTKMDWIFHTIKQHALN
Chain of von Hippel-Lindau disease tumor suppressor/Phosphatidylinositol 4,5-bisphosphate 3-kinase catalytic subunit alpha isoform (P42336 whole entry, canonical isoform): as above
Chain of von Hippel-Lindau disease tumor suppressor/Phosphatidylinositol 4,5-bisphosphate 3-kinase catalytic subunit alpha isoform (P40337 whole entry, canonical isoform): as the sequence (P40337 whole entry, canonical isoform) above

COc1ncc(-c2ccc3ncnc(N[C@H]4CCN(C(=O)C5CCN(CCCCCCCCCC(=O)N[C@H](C(=O)N6C[C@H](O)C[C@H]6C(=O)N[C@@H](C)c6ccc(-c7scnc7C)cc6)C(C)(C)C)CC5)C4)c3n2)cc1C(=O)Oc1ccccc1
viability at 1 µM [1]: 33.9% | GI50 [2]: 170 nM | Activity [3]: Active | inhibition [4]: Active | Activity [5]: Dose-dependent-effect | IC50 [6]: 589 nM | Activity [7]: Non-toxic | IC50 [8]: > 10000 nM | Activity [9]: Non-toxic | Activity [10]: 0.76% | Activity [11]: 50.74% | Activity [12]: Active; More Potent Than 10 Um Idelalisib | inhibition [13]: Dose-dependent-effect | Activity [14]: Non-toxic | Activity [15]: 0.75% | DC50 [16]: > 1000 nM | viability at 0.1 µM [17]: 91.5% | Activity [18]: Non-toxic | Activity [19]: Non-toxic | Activity [20]: 7.11% | inhibition [21]: Active | Activity [22]: 0.65% | Activity [23]: 0.51% | Activity [24]: 14.65% | inhibition in vivo at 10 mg/kg [25]: 73.3% | Activity [26]: Active | Activity [27]: Non-toxic | GI50 [28]: 350 nM | Activity [29]: 0.61% | Activity [30]: 6.92% | viability at 0.01 µM [31]: 91.7% | inhibition in vivo at 2 mg/kg [32]: 59.1% | DC50 [33]: > 1000 nM | remaining at 48 h [34]: > 80%
